Results reported in patent EP4656642A1, “ESTROGEN RECEPTOR PROTEOLYSIS TARGETING CHIMERA COMPOUND AND USE THEREOF” (GAN & LEE PHARM CO., LTD, priority 2023, dated 2024).

Tests used:
Assay type in all cases: cell-based
[1] = molecular target: T1, ERα (Homo sapiens, UniProt P03372); assay: Degradation of ERα in T-47D cells (immunoblotting, 4 h); parameters: host or cells: T-47D
T1 sequence (P03372 1-595): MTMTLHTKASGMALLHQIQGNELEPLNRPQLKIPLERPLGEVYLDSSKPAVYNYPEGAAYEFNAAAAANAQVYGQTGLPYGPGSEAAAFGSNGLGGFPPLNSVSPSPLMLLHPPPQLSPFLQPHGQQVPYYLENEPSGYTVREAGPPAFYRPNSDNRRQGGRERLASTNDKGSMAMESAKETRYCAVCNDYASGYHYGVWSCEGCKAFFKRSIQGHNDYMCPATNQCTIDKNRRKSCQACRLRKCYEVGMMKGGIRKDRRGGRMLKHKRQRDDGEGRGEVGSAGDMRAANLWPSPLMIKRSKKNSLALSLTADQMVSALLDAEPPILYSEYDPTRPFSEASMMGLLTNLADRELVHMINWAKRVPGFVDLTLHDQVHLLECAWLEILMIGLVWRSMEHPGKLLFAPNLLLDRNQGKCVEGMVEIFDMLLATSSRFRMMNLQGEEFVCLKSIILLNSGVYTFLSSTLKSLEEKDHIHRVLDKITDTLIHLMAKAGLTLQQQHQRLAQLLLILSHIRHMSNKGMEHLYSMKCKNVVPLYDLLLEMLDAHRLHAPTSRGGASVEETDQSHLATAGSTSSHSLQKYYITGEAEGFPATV
Outline: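 ERα protein levels were assessed by immunoblot of RIPA lysates (with protease inhibitor) after 4 h exposure at 37°C. Compound was added in DMSO to T-47D cells at final concentrations of 0.15-1000 nM.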

[2] = test system: MCF-7 cells; assay: Inhibition of cell proliferation of MCF-7 cells (CCK-8, 9 days); settings: treated for 9 days, CCK-8 kit (Table 6)
Outline: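 Read-out was CCK-8 viability after 9-day continuous exposure (37°C, 5% CO2) of MCF-7 cells plated at 800/well in 10% FBS DMEM across several compound concentrations. Values are proliferation IC50s.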

[3] = test system: T-47D cells; assay: Inhibition of cell proliferation in T-47D cells (CCK-8, 6 days); settings: 6 days of treatment, Table 3
Outline: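 Viability read-out was CCK-8 after 6 days of compound treatment (37 °C, 5% CO2) across graded concentrations. Cells were T-47D seeded at 3,000 per well in 1640 medium plus 10% FBS. IC50 was calculated against proliferation.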

[4] = molecular target: T1, ERα; assay: Degradation of ERα in MCF-7 cells (immunoblotting, 4 h)
Outline: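 Degradation rate reflects ERα band intensity, corrected to an internal reference protein, relative to control. Values come from Western blotting of lysates from MCF-7 cells exposed 4 h at 37°C to compounds at final concentrations of 0.15-1000nM.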

Row | Structure (SMILES) | Degradation rate (%) of ERα in T-47D cells ([1]; 1nM compound) | Degradation rate (%) of ERα in T-47D cells ([1]; 10nM compound) | IC50 [2] | IC50 [3] | Degradation rate (%) of ERα in MCF-7 cells ([4]; 1nM compound) | Degradation rate (%) of ERα in MCF-7 cells ([4]; 10nM compound)
1 | O=C1CCC(N2Cc3ccc4c(c3C2=O)OCC42CCN(C3CC4(CCN(c5ccc([C@@H]6c7ccc(O)cc7CC[C@@H]6c6ccccc6)cc5)CC4)C3)CC2)C(=O)N1 (stereo partly drawn) [L26] | -11% | 30% | 828 nM | 6.52 nM | 10% | 18%
2 | CN(CC1CCN(c2ccc([C@@H]3c4ccc(O)cc4CC[C@@H]3c3ccccc3)cc2)CC1)[C@H]1CC[C@H](C(=O)N2CCC3(CC2)COc2c3ccc3c2CN(C2CCC(=O)NC2=O)C3=O)CC1 (stereo partly drawn) [N3] | 30% | 70% | 195 nM | 4.92 nM | -4% | 1%
3 | O=C1CCC(N2Cc3c(ccc4c3OCC43CCN(C(=O)C(=O)N4CCC5(CCN(c6ccc([C@@H]7c8ccc(O)cc8CC[C@@H]7c7ccccc7)cc6)CC5)C4)CC3)C2=O)C(=O)N1 (stereo partly drawn) [N5] | 63% | 82% | 34.1 nM | 1.79 nM | 58% | 69%
4 | CNC(=O)[C@@H]1CC(N2CCC3(CC2)COc2c3ccc3c2CN(C2CCC(=O)NC2=O)C3=O)CCN1C1CC2(CCN(c3ccc([C@@H]4c5ccc(O)cc5CC[C@@H]4c4ccccc4)cc3)CC2)C1 (stereo partly drawn) [H38] | 34% | 75% | 31.8 nM | 2.58 nM | 49% | 71%
5 | CN(C(=O)CN1CCC2(CC1)COc1c2ccc2c1CN(C1CCC(=O)NC1=O)C2=O)C1CCC2(CC1)CCN(c1ccc([C@@H]3c4ccc(O)cc4CC[C@@H]3c3ccccc3)cc1)CC2 (stereo partly drawn) [H50] | 11% | 63% | 9560 nM | 3.59 nM | 32% | 71%
6 | C[C@@H]1C[C@H](N2CCC3(CC2)COc2c3ccc3c2CN(C2CCC(=O)NC2=O)C3=O)CCN1C(=O)C1CCN(c2ccc([C@@H]3c4ccc(O)cc4CC[C@@H]3c3ccccc3)cc2)CC1 (stereo partly drawn) [H28] | 62% | 83% | 8.41 nM | 1.01 nM | 36% | 65%
7 | O=C1CCC(N2Cc3ccc4c(c3C2=O)OCC42CCN(C3CCC4(CC3)CN(c3ccc([C@@H]5c6ccc(O)cc6CC[C@@H]5c5ccccc5)cc3)C4)CC2)C(=O)N1 (stereo partly drawn) [L25] | -1% | 17% | 757 nM | 7.97 nM | -20% | 6%
8 | O=C1CCC(N2Cc3c(ccc4c3OCC43CCN(C(=O)c4ccc(CN5CCN(c6ccc([C@@H]7c8ccc(O)cc8CC[C@@H]7c7ccccc7)cc6)CC5)cn4)CC3)C2=O)C(=O)N1 (stereo partly drawn) [B41] | 66% | 74% | 29200 nM | 0.75 nM | 59% | 53%
9 | COC(=O)[C@@H]1C[C@H](N2CCC3(CC2)COc2c3ccc3c2CN(C2CCC(=O)NC2=O)C3=O)CCN1C1CC2(CCN(c3ccc([C@@H]4c5ccc(O)cc5CC[C@@H]4c4ccccc4)cc3)CC2)C1 (stereo partly drawn) [H31] | 55% | 85% | 43.3 nM | 1.8 nM | 46% | 83%
10 | O=C1CCC(N2Cc3c(ccc4c3OCC43CCN(C4CC5(C4)CC4(CCN(c6ccc([C@@H]7c8ccc(O)cc8CC[C@@H]7c7ccccc7)cc6)CC4)C5)CC3)C2=O)C(=O)N1 (stereo partly drawn) [G6] | 33% | 71% | 25400 nM | 4.21 nM | 8% | 46%
11 | O=C1CCC(N2Cc3c(ccc4c3OCC43CCN(C(=O)C4CCN(c5ccc([C@@H]6c7ccc(O)cc7CC[C@@H]6c6ccccc6)cc5)CC4)CC3)C2=O)C(=O)N1 (stereo partly drawn) [A52] | 3% | 2% | 5680 nM | 10.9 nM | -22% | -33%
12 | O=C1CCC(N2Cc3c(ccc4c3OCC43CCN(C(=O)CC4CCN(c5ccc([C@@H]6c7ccc(O)cc7CC[C@@H]6c6ccccc6)cc5)CC4)CC3)C2=O)C(=O)N1 (stereo partly drawn) [H16] | 48% | 69% | 9770 nM | 5.7 nM | 9% | 37%
13 | O=C1CCC(N2Cc3c(ccc4c3OCC43CCN(C4CCN(CC5CCN(c6ccc([C@@H]7c8ccc(O)cc8CC[C@@H]7c7ccccc7)cc6)CC5)C(=O)C4)CC3)C2=O)C(=O)N1 (stereo partly drawn) [A116] | 28% | 23% | 25200 nM | 1.61 nM | 25% | 4%
14 | C[C@@H]1CN(C(=O)C2(F)CCN(c3ccc([C@@H]4c5ccc(O)cc5CC[C@@H]4c4ccccc4)cc3)CC2)CCC1N1CCC2(CC1)COc1c2ccc2c1CN(C1CCC(=O)NC1=O)C2=O (stereo partly drawn) [A96] | 31% | 78% | 11 nM | 3.38 nM | 40% | 66%
15 | O=C1CCC(N2C(=O)c3cc4c(cc3C2=O)C2(CCN(CC3CCC5(CC3)CCN(c3ccc([C@@H]6c7ccc(O)cc7CC[C@@H]6c6ccccc6)cc3)CC5)CC2)CO4)C(=O)N1 (stereo partly drawn) [A36] | 2% | -23% | 270 nM | 21 nM | 11% | -14%
16 | O=C1CCC(N2Cc3ccc4c(c3C2=O)OCC2(CCN(C3CCC5(CC3)CCN(c3ccc([C@@H]6c7ccc(O)cc7CC[C@@H]6c6ccccc6)cc3)CC5)CC2)C4)C(=O)N1 (stereo partly drawn) [L3] | 25% | 54% | 130 nM | 5 nM | 23% | 44%
